One compound from article PMC12372887, “Mechanism and cellular actions of the potent AMPK inhibitor BAY-3827” (Science Advances, 2025) can be followed below.

Assay in all cases: Spectral shift (Dianthus) binding assay
Common to all, as to details: read-out: dissociation constant (Kd)

In one assay the target is T1, AMPKα2 (T172D)–α2KD (Homo sapiens, UniProt P54646, T172D).
T1 construct: human AMPK-α2 KD (α2KD; residues 6 to 280); made in house; host or cells: E. coli BL21(DE3)-RIL
The protocol: (§1) The binding affinity of BAY-3827 to α2KD, AMPK (T172D)-α2KD, or AMPK complexes α2β2γ1 and α2β2γ3 was measured by Dianthus (Nano Temper Technologies). BAY-3827 was diluted from a 100 mM stock in DMSO to 0.5 mM working concentration in the assay buffer (PBS with 0.005% Tween-20) with a final DMSO concentration of 2.5%, which was kept constant throughout the concentration gradient of the compound. For additional experiments, assay buffer containing Hepes 25 mM, NaCl 250 mM, and 0.005% Tween-20 was used to optimize the assay, enhancing signal-to-noise ratios. His-tagged α2KD, T172D-α2KD, or His-tagged AMPK-α2β2γ1 or α2β2γ3 complexes were labeled with His-tag labeling dye (His-Tag Labeling Kit RED-tris-NTA 2nd Generation). The ratio of fluorescence intensities (670/650 nm) over BAY-3827 concentration gradient ranging from 250 μM down to 0.015 μM. The concentration gradient was prepared by 1:1 serial dilution over 16 steps, with a setup of two to three technical replicates for each concentration. The binding experiments were repeated three times, and the mean Kd values of the inhibitor are reported in the appropriate figure alongside ± SEM (micromolar) displaying a representative graph. A concentration of 50 nM of the corresponding protein target was used in each performed assay. The ratio of fluorescence intensities was measured over BAY-3827 concentration gradient in GraphPad Prism using nonlinear regression (one site-total binding). Data quality was assessed by monitoring XYZ scans for each well to detect air bubbles or aggregation where present following the manufacturer’s instructions.
(§2) Data points are plotted as means ± SEM. Data were inputted, and all statistical tests were performed using GraphPad Prism, version 10.1.0. One- or two-way analysis of variance (ANOVA) statistical tests were conducted using Tukey’s correction for multiple comparisons; specific test will be stated in the figure legend. Significance was accepted as P < 0.05. N number and statistical details for each experiment are reported in each figure legend. […] To estimate IC50 values, nonlinear regression fitting was conducted using the model (Inhibitor) versus response—variable slope in GraphPad Prism (version 10.1.0) and estimating values reported in nanomolar. To estimate binding affinities (Kd) from performed spectral shift binding assays, data were fitted using a one-site total model [Y = BmaxX/(Kd + X) + NSX + Background] where X is the ligand concentration, Bmax represents the maximum binding, and NS is the slope of the nonlinear regression of Y/X. Values are reported in means ± SEM in micromolar.

For assay [1], the target named is T2, AMPKα2 kinase domain (α2KD), WT (Homo sapiens, UniProt P54646).
T2 construct: human AMPK-α2 KD (α2KD; residues 6 to 280); made in house; host or cells: E. coli BL21(DE3)-RIL
The protocol: as §1, §2

For assay [2], the target named is T3, nonphosphorylated AMPKα2β2γ1 complex (Homo sapiens, UniProt O43741+P54619+P54646).
T3 construct: For expression of full-length AMPKα2β2γ1, α2β2γ2, and α2β2γ3 complexes; made in house; host or cells: E. coli BL21(DE3)-RIL
The protocol:
as §1, §2

Assay [3] concerns the target T4, nonphosphorylated AMPKα2β2γ3 complex (Homo sapiens, UniProt O43741+P54646+Q9UGI9).
T4 construct: For expression of full-length AMPKα2β2γ1, α2β2γ2, and α2β2γ3 complexes; made in house; host or cells: E. coli BL21(DE3)-RIL
How it is done:
as §1, §2

Like-named read-outs stand apart in the source and are kept apart here.

T1 sequence (P54646 6-280 T172D): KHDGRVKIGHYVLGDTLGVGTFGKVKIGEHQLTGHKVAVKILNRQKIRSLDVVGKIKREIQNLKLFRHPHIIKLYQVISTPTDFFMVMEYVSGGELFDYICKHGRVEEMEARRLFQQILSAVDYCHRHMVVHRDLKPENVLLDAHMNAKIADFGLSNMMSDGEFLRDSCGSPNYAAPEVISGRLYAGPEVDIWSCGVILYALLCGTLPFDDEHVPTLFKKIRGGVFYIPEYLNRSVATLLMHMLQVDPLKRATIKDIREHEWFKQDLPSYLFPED
T2 sequence (P54646 6-280): as the sequence (P54646 6-280 T172D) above, with D167T counted along it
T4 sequence (P54646 whole entry): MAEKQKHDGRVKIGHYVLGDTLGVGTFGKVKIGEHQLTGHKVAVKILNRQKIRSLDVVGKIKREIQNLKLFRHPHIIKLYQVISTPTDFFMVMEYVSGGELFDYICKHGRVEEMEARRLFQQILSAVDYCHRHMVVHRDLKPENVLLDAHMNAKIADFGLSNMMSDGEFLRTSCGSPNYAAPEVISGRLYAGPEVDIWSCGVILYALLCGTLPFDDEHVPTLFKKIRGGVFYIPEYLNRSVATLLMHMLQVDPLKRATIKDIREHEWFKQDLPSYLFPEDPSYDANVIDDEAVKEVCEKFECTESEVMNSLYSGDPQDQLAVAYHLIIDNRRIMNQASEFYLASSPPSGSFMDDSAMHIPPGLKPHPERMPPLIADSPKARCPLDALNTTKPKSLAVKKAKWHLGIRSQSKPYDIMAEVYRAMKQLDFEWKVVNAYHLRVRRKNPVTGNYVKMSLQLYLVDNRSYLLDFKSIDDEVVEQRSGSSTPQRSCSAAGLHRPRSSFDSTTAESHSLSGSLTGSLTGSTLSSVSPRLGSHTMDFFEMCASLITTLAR
T4 sequence (O43741 whole entry partner): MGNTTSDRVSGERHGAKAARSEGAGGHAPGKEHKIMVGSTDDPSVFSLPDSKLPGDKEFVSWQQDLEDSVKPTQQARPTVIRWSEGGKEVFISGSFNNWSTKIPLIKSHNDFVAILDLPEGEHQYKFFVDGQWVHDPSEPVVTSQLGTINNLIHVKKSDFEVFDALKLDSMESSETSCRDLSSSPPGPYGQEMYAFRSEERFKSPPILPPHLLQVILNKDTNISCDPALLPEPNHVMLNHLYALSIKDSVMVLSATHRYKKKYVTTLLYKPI
T4 sequence (Q9UGI9 whole entry partner): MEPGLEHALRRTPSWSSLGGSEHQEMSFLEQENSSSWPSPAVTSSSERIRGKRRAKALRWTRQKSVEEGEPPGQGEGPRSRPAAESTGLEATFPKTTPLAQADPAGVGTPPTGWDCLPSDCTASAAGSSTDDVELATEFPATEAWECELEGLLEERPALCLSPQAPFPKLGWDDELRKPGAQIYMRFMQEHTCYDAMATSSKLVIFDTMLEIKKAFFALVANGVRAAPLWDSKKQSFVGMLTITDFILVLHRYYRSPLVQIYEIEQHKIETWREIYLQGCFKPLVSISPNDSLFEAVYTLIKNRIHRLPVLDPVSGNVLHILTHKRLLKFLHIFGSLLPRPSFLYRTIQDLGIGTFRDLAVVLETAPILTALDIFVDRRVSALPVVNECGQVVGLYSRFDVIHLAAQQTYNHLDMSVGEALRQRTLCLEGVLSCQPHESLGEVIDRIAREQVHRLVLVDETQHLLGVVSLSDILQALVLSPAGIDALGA
T3 sequence (P54646 whole entry): as the sequence (P54646 whole entry) above
T3 sequence (O43741 whole entry partner): as the sequence (O43741 whole entry partner) above
T3 sequence (P54619 whole entry partner): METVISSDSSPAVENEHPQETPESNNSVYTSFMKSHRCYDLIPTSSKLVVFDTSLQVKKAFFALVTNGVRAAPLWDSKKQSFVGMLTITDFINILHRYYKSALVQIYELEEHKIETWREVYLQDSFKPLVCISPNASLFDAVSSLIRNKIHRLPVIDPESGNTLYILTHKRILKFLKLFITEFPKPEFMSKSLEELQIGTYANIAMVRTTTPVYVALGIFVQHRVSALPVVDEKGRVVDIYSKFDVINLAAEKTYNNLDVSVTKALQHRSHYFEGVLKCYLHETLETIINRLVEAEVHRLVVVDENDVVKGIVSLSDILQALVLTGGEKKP

Take `CCc1ccccc1C(=O)Nc1n[nH]c2c(C)c(F)c(C3C(C#N)=C(C)N(C)C(C)=C3C#N)cc12` [BAY-3827, N-[5-(3,5-dicyano-1,2,6-trimethyl-4H-pyridin-4-yl)-6-fluoro-7-methyl-1H-indazol-3-yl]-2-ethylbenzamide]: the Kd on AMPKα2 (T172D)–α2KD (+3 mM DTT) was 9.01 ± 1.85 µM; at AMPKα2 (T172D)–α2KD (- DTT), 8.65 ± 1.38 µM; in assay [1] (+3 mM DTT), 28.6 ± 12.5 µM; in assay [1] (without DTT), 1.23 µM; in assay [2] it was 11.3 ± 5.23 µM; in assay [3], 21.8 ± 8.51 µM.

As a reminder, the Kd is the concentration at which binding is half-saturated.
